Assay results published in patent publication US7012098B2, “Inhibitors of inducible nitric oxide synthase for chemoprevention and treatment of cancers” (Pharmacia Corporation, priority 2001, dated 2006).
Counter-ions that a name gives are not always drawn.

Columns and labels:
AOM-induced colonic ACF = assay: Chemopreventive effects in rats with azoxymethane-induced aberrant crypt foci; assay type: in vivo, male F344 rats; details: for Foci containing 1 Crypt / Foci containing 2 Crypt / Foci containing 3 Crypt / Foci containing ≧4 Crypts / Total ACF incidence: AOM-treated male F344 rats, Mean ± SEM
Excerpt: In Vivo Assay of Chemopreventive Effects of Therapeutic Compounds in Rats with Azoxymethane-induced Aberrant Crypt Foci
Azoxymethane (AOM) (CAS:25843-45-2) was purchased from Ash Stevens (Detroit, Mich.). iNOS and COX-2 selective inhibitors were provided by Pharmacia, (St. Louis, […].). Sulindac, a non-selective inhibitor of COX-isoforms and a known inhibitor of colon carcinogenesis, was supplied by the Chemoprevention Branch of the National Cancer Institute (Bethesda, Md.). Weanling male F344 rats were purchased from Charles River Breeding Laboratories (Kingston, N.Y.). All ingredients of the semipurified diet were obtained from Dyets Inc., (Bethlehem, Pa.) and were stored at 4° C. until the experimental diets were prepared. The rats were held in quarantine for 1 week and had access to modified AIN-76A semipurified control diet (Reddy et al., Cancer Res. 50: 2562-2568, 1990, which is herein incorporated by reference.). They were randomly distributed into various dietary groups and were transferred to an animal holding room where they were housed, three rats to a plastic cage, under controlled conditions of a 12-h light/12-h dark cycle, 50% relative humidity and 21° C. room temperature. Experimental diets were prepared by mixing chemopreventive agents with modified AIN-76A control diet.
To quantify aberrant crypt foci, after a minimum of 24 h in buffered formalin, the colons were cut into 2-cm segments starting at the anus; for the next 5-10 min they were placed in a Petri dish containing 0.2% methylene blue in Krebs Ringer solution. They were then placed, mucosal side up, on a microscope slide and observed through a light microscope. Aberrant crypt foci were recorded according to standard procedures that are being used routinely in our laboratory (Rao et al., Carcinogenesis 21: 617-21, 2000; Rao et al., Cancer Res. 53:4182-88, 1993, which are herein incorporated by reference.). […] The parameters used to assess the aberrant crypts were their occurrence and multiplicity. Crypt multiplicity was determined as the number of crypts in each focus and categorized as containing up to 3, or 4 or more aberrant crypts/focus.

NOS = assay: Colonic mucosal NOS activity after dietary treatment; assay type: in vivo, male F344 rats; details: 100 ppm in diet; AOM-treated rats, colonic mucosa; Mean ± SEM
Experimental: In Vivo Assay of Modulation of Colonic Mucosal Activities of NOS and COX isoforms by iNOS and COX-2 Inhibitors
NOS and iNOS activities were determined in colonic samples as prepared and described above. Conversion of L-arginine to L-citrulline was measured by a modification of an earlier described method (Rao et al, Carcinogenesis 21, supra; Ambs et al., Cancer Res. 58:334-41, 1998, which is herein incorporated by reference). The assay was carried out by adding 100 μg sample protein to 150 μl of assay buffer [50 mM HEPES, 1 mM DTT, 1 mM MgCl2, 5 mg/L pepstatin A, 0.1 mM PMSF, and 3 mg/L aprotinin, pH 7.4] containing 70 μM arginine, 250,000 dpm L-[^3H]-arginine, 2 mM NADPH, 5μM tetrahydro biopterin, 5 μM flavin adenine dinucleotide, and 0.5 mM CaCi2 to measure total NOS activity, or 1 mM EGTA (without calcium) to determine Ca+^2-independent iNOS activity. After 30 min at 37° C., the reaction was stopped with 100 μl of 1M trichloroacetic acid. Then the samples were adjusted to pH 4.6 by adding 500 μl of 20 mM HEPES and loaded on to Dowex AG 50W-X8 resin columns. L-[^3H]-citrulline was eluted and separated on TLC. Radioactivity was counted by a BioScan Radiomatic detector. Results are expressed as pmol L-[^3H]-citrulline released/mg protein/min.

`CC(=N)NCCCC[C@H](N)C(=O)Nc1nnn[nH]1` [compound XI, 2S-amino-6-[(1-iminoethyl)amino]-N-(1H-tetrazol-5-yl)hexanamide, hydrate, dihydrochloride] was tested, and the “Foci containing 1 Crypt” value (AOM-induced colonic ACF; 10 ppm in diet) was 28.2 ± 1.8, the “Foci containing 2 Crypt” value (AOM-induced colonic ACF; 10 ppm in diet) was 31.7 ± 2.7 and the “Foci containing 3 Crypt” value (AOM-induced colonic ACF; 10 ppm in diet) was 29.3 ± 2.3. For the same molecule, the “Foci containing ≧4 Crypts” value (AOM-induced colonic ACF; 10 ppm in diet) was 25.6 ± 1.8, the “Total ACF incidence” value (AOM-induced colonic ACF; 10 ppm in diet) was 115 ± 4.8 and the “Foci containing 1 Crypt” value (AOM-induced colonic ACF; 30 ppm in diet) was 28.7 ± 2.9. The “Foci containing 2 Crypt” value (AOM-induced colonic ACF; 30 ppm in diet) was 32.6 ± 1.8, the “Foci containing 3 Crypt” value (AOM-induced colonic ACF; 30 ppm in diet) was 24.8 ± 1.7 and the “Foci containing ≧4 Crypts” value (AOM-induced colonic ACF; 30 ppm in diet) was 22 ± 2.7. The “Total ACF incidence” value (AOM-induced colonic ACF; 30 ppm in diet) was 108 ± 5.5, the “Foci containing 1 Crypt” value (AOM-induced colonic ACF; 100 ppm in diet) was 28.6 ± 2.2 and the “Foci containing 2 Crypt” value (AOM-induced colonic ACF; 100 ppm in diet) was 33.6 ± 2.1. For the same molecule, the “Foci containing 3 Crypt” value (AOM-induced colonic ACF; 100 ppm in diet) was 17.7 ± 1.1, the “Foci containing ≧4 Crypts” value (AOM-induced colonic ACF; 100 ppm in diet) was 13.9 ± 1.1 and the “Total ACF incidence” value (AOM-induced colonic ACF; 100 ppm in diet) was 93.8 ± 4.2. For the same molecule, the “effect on AOM-induced total colonic ACF and multicrypt clusters of 4 or more crypts” value (AOM-induced colonic ACF; 100 ppm, compared to control diet) was “suppressed” and the “NOS Activity, NOS” value (NOS) was 9.8 ± 1.5 pmoles [^3H]-citrulline/mg pro.
